Measured values published in patent US20050020501A1, “Methods of modulating the activity of mura” (SmithKline Beecham Corporation and SmithKline Beechm p.l.c., priority 2000, published 2005).
Values after ≈ are worked out from the molar mass of the structure shown. “Also recorded” adds a separate entry of the source. Structures can show the parent of a compound that is named as a salt. Where two headings read alike, the source gives them in different places.

How the values were obtained:
S. pneumoniae 100993 = experiment: Antibacterial activity, minimum inhibitory concentration; format: cell-based, Streptococcus pneumoniae; conditions: for Antibacterial activity compared across media: TH media and minimal media with and without supplements; for Effect of adding aromatic amino acids and PABA on antibacterial activity in minimal media: minimal media with versus without aromatic amino acids and PABA
Procedure: The antibacterial activity of ATA against S.pneumoniae100993 was measured in Todd Hewitt media, minimal media, and minimal media+aromatic amino acids (100 mg/L) and p-aminobenzoic acid (PABA) (0.2 mg/L). Glyphosate, chloramphenical and ciprofloxacin were controls.

[1] = molecular target: T1, EPSP Synthase (S. pneumoniae) (Streptococcus pneumoniae serotype 4, UniProt Q9S400); experiment: EPSPS kinetic assay, fluorescence coupled detection of inorganic phosphate release; format: biochemical; conditions: for Inhibition type vs. PEP / Inhibition type vs. S3P: EPSP synthase; for Inhibition type vs. PEP: varied substrate PEP; for Inhibition type vs. S3P: varied substrate S3P; for Inhibition of EPSPS (in words): rosolic acid tested up to 2 mM
T1 construct: made in house
Description: (§1) All chemicals including ATA and its salt forms are from Aldrich. SKF-26488-W3 was isolated as a high-throughput screen hit against EPSPS. Escherichia coli MurA (Marquardt, et al., J. Bacteriol., Vol. 174: 5748-5752 (1992)) and Streptococcus pneumoniae EPSPS (Du, et al., Eur. J. Biochem., Vol. 267: 222-227 (2000)) were expressed and purified as described previously.
(§2) The assays for both EPSPS and MurA are based on the detection of inorganic phosphate release. A fluorescence coupled assay was used for EPSPS and was performed in 100 mM HEPES, pH 7.0, 1 mM NH4Cl, 100 mM KCl. (Du, et al., Eur. J. Biochem., Vol. 267: 222-227 (2000)). MurA was assayed in 50 mM HEPES, pH 7.5, 1 mM DTI using the Malachite Green reagent (Lanzetta, et al., Anal. Biochem., Vol. 100: 95-97 (1979)). The Ki values were determined with fixed concentration of one substrate and varying concentrations of the other substrate and inhibitor. Data were analyzed using GraFit v4.09 (Erithacus Software Ltd.).

MurA (E. coli) = molecular target: T2, MurA (E. coli) (Escherichia coli, UniProt P0A749); experiment: MurA kinetic assay, Malachite Green detection of inorganic phosphate release; format: biochemical; conditions: for Ki / Inhibition type vs. PEP / Inhibition type vs. UDPAG: MurA
T2 construct: made in house
Description: as §1, §2

[2] = Streptococcus pneumoniae, 100993, Chemically Defined Medium for Group A Streptococci without aromatic amino acids and PABA, read-out: Minimum Inhibitory Concentration, Minimal media
[3] = Streptococcus pneumoniae, 100993, JRH Strep media with aromatic amino acids and PABA, read-out: Minimum Inhibitory Concentration, Minimal media w/aa's + PABA
[4] = Streptococcus pneumoniae, 100993, Todd Hewitt broth, read-out: Minimum Inhibitory Concentration, TH
[5] = Streptococcus pneumoniae, 100993, read-out: Minimum Inhibitory Concentration, Minimal media
[6] = Streptococcus pneumoniae, 100993, read-out: Minimum Inhibitory Concentration, Minimal media w/aa's + PABA
[7] = Streptococcus pneumoniae, 100993, read-out: Minimum Inhibitory Concentration, TH

T2 sequence (P0A749 whole entry): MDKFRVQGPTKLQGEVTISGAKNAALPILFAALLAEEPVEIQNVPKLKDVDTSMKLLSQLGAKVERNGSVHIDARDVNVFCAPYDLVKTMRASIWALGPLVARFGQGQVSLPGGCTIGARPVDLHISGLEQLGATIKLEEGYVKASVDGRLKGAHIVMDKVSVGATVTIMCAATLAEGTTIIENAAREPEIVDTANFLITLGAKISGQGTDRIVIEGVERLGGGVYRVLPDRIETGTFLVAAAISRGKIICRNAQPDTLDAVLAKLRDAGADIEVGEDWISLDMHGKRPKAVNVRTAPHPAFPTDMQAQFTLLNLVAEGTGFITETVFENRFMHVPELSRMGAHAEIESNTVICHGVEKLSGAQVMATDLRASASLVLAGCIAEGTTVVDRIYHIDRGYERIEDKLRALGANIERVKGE
T1 sequence (Q9S400 whole entry): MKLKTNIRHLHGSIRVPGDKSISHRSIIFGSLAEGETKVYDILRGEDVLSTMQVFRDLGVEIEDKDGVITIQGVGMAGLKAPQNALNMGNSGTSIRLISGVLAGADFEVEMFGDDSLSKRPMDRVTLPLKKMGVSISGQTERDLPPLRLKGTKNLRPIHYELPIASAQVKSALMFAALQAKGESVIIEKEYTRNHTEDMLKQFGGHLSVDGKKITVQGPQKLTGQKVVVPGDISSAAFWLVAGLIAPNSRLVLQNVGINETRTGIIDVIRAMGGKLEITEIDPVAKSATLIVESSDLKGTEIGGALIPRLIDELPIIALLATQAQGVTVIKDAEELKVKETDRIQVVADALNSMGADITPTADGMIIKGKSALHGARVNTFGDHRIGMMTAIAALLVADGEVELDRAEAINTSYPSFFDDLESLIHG

Compound: O=C(O)c1cn(C2CC2)c2cc(N3CCNCC3)c(F)cc2c1=O [Ciprofloxacin]
- MIC (S. pneumoniae 100993; [2]): 2 µg/mL (≈ 6.04 µM)
- MIC (S. pneumoniae 100993; [3]): 2 µg/mL
- MIC (S. pneumoniae 100993; [4]): 2 µg/mL (≈ 6.04 µM)
- Antibacterial activity compared across media (S. pneumoniae 100993): substantially the same

Compound: O=C(O)C1=CC(=C(c2ccc(O)c(C(=O)O)c2)c2ccc(O)c(C(=O)O)c2)C=CC1=O [Aurin Tricarboxylic Acid]
- Inhibition type vs. PEP [1]: Noncompetitive
- Inhibition type vs. S3P [1]: Competitive
- Inhibition type vs. S3P ([1]; listed as aurin tricarboxylic acid): competitive inhibitors vs. S3P
- Ki ([1]; Ki vs. S3P, EPSPS, competitive vs. S3P, range given for ATA and its sodium and ammonium salts together): 2.8 to 4.5 µM
- Potency against MurA relative to RA (MurA (E. coli); ATA versus RA, MurA from Escherichia coli): ~200 fold
- Ki (MurA (E. coli); Ki vs. UDPAG, varied substrate UDPAG): 0.23 µM
- Inhibition type vs. PEP (MurA (E. coli); varied substrate PEP): Non-specific inhibition
- Inhibition type vs. UDPAG (MurA (E. coli); varied substrate UDPAG): Competitive
- Inhibition type vs. UDPAG (MurA (E. coli); varied substrate UDPAG, listed as ATA): competitive vs UDPAG
- Inhibition pattern of MurA versus both substrates (in words) (MurA (E. coli); versus UDPAG and PEP): specific inhibition patterns versus both substrates
- MIC (S. pneumoniae 100993; [5]): 2 µg/mL (≈ 4.74 µM)
- MIC (S. pneumoniae 100993; [6]): 4 µg/mL
- MIC (S. pneumoniae 100993; [7]): > 128 µg/mL
- Activity in minimal media relative to TH media (S. pneumoniae 100993; minimal media versus TH media): more than 64 fold
- Effect of adding aromatic amino acids and PABA on antibacterial activity in minimal media (S. pneumoniae 100993): not reversed

Compound: O=C1C=CC(=C(c2ccc(O)cc2)c2ccc(O)cc2)C=C1 [Rosolic Acid]
- Inhibition type vs. PEP [1]: No inhibition (up to 2 mM)
- Inhibition type vs. S3P [1]: No inhibition (up to 2 mM)
- Inhibition of EPSPS (in words) [1]: does not inhibit EPSPS up to 2 mM
- Inhibition type vs. PEP (MurA (E. coli); varied substrate PEP): Mixed type inhibition
- Ki (MurA (E. coli); varied substrate PEP, mixed type inhibition, second constant, read-out: Ki′ vs. PEP): 273 µM
- Ki (MurA (E. coli); varied substrate PEP, mixed type inhibition, read-out: Ki vs. PEP): 10.9 µM
- Inhibition type vs. UDPAG (MurA (E. coli); varied substrate UDPAG): Competitive
- Inhibition type vs. UDPAG (MurA (E. coli); varied substrate UDPAG, listed as RA): competitive vs UDPAG; also recorded: competitive inhibitor versus UDPAG, although a poor one
- Ki (MurA (E. coli); varied substrate UDPAG, read-out: Ki vs. UDPAG): 44.7 µM

Compound: O=C(O)C1=CC(=C(c2ccc(O)c(C(=O)O)c2)c2ccc(O)c(C(=O)O)c2)C=CC1=O [SKB-26488-W3, aurin tricarboxylic acid]
- IC50 against EPSPS ([1]; high-throughput screening of EPSPS): in the μM range

Compound: O=C(O)C1=CC(=C(c2ccc(O)c(C(=O)O)c2)c2ccc(O)c(C(=O)O)c2)C=CC1=O [ATA sodium salt]
- Inhibition type vs. S3P [1]: competitive inhibitors vs. S3P
- Inhibition of EPSPS (in words) [1]: specific inhibitors of EPSPS

Compound: O=C(O)CNCP(=O)(O)O [Glyphosate]
- MIC (S. pneumoniae 100993; [5]): 512 µg/mL (≈ 3030 µM)
- MIC (S. pneumoniae 100993; [6]): > 512 µg/mL
- MIC (S. pneumoniae 100993; [7]): > 512 µg/mL
- Antibacterial activity in TH media (in words) (S. pneumoniae 100993; TH media): no antibacterial activity
- Effect of adding aromatic amino acids and PABA on antibacterial activity in minimal media (S. pneumoniae 100993): reversed

Compound: O=C(N[C@H](CO)[C@H](O)c1ccc([N+](=O)[O-])cc1)C(Cl)Cl [Chloramphenicol]
- MIC (S. pneumoniae 100993; [2]): 2 µg/mL (≈ 6.19 µM)
- MIC (S. pneumoniae 100993; [3]): 2 µg/mL
- MIC (S. pneumoniae 100993; [4]): 2 µg/mL (≈ 6.19 µM)
- Antibacterial activity compared across media (S. pneumoniae 100993): substantially the same

Compound: N.N.N.O=C(O)C1=CC(=C(c2ccc(O)c(C(=O)O)c2)c2ccc(O)c(C(=O)O)c2)C=CC1=O [ATA ammonium salt]
- Inhibition type vs. S3P [1]: competitive inhibitors vs. S3P
- Inhibition of EPSPS (in words) [1]: specific inhibitors of EPSPS
